Assay [1] concerns the target T1, GPR84 (Homo sapiens, UniProt Q9NQS5).
T1 construct: host or cells: CHO-K1 (cAMP Hunter CHO-K1 GPR84 Gi cells)
The assay is described as follows: GPR84 cAMP release assay, test for agonism (cAMP Hunter CHO-K1 GPR84 Gi cells, TR-FRET). The conditions noted are these: 60 min incubation. In kind it is cell-based.
Experimental: For the resuscitation of frozen cells (cAMP Hunter™ CHO-K1 GPR84 Gi cells; DiscoverX; #95-0158C2) one vial is taken out of the liquid nitrogen storage and rapidly thawed in a water bath at 37° C. for some 1 to 3 minutes. Immediately afterwards the cells are transferred carefully by decanting into a 50 ml Falcon Tube containing 15 ml of pre-warmed full cell culture medium (HAM's F12; 10% FCS; no selection markers). Gentle swirling is used to assist their resuspension. In a next step, the cells are harvested straight away via low g centrifugation for 5 minutes (Hereaus Multifuge 4 KR; 400 rpm; rcf=44 g) to avoid over-compacting the cell pellet. Gentle decanting is used to get rid of the medium. Finally assay readiness is achieved by carefully re-suspending the cell pellet in 5 ml of the final assay medium (HAM's F12; 10% FCS; no selection markers). In a last step, cell viability and the actual cell number is determined (Omni Life Science; Casy Cell Counter/Analyzer) prior to correcting the volume for the final cell number to be seeded, i.e. 2500 cells/μl. […]
2 μl's of assay ready frozen cells are directly seeded into the wells of a non-sterile 384-well plate (Greiner; white; #784075; 5000 cells/well). […] Time resolved FRET (TR-FRET) signals are determined 60 minutes later using an appropriate HTRF reader (BMG Labtech: Pherastar). […]

The test system of a further assay is PBMCs. Put plainly: In vitro assay 2: GPR84 ligand associated IL-1beta and TNFalpha release from PBMCs (ELISA). It is filed as cell-based. The settings on record: for IL-1beta concentration / TNF alpha concentration: PBMCs stimulated with LPS 100 ng/ml 24 hours, treatment 4 h. On the procedure: PBMCs were isolated by Ficoll-Paque Plus (Biochrom) density gradient centrifugation from whole blood. Briefly, PBMCs were centrifuged at 250 g for 30 sec and resuspended and cultured in RPMI 1640 medium [Gibco, CAT No. 11875093] with 10% heat-inactivated FBS, L-Glutamine (10 g/L), penicillin (100 IU/mL), and streptomycin ([…]) at 37° C. in a 5% CO2 environment. Cells were stimulated with LPS (100 ng/ml, Sigma-Aldrich) for 24 hours and treated with the GPR84 agonist 6-n-octylaminouracil and antagonist CMPD 139 for 4 h. IL-1beta and TNFalpha concentrations were analyzed by ELISA (Mesoscale Discovery, Germany).
On the technique in general: An ELISA detects its analyte on a solid surface through an enzyme-linked reagent.

Assay [2] relates to mouse CFA model of inflammation. The assay is described as follows: CFA pain model, dynamic weight-bearing (DWB). It is filed as in vivo. The conditions noted are these: preventive, 24 h after CFA, vehicle 42.91 +/− 19.32. Here is the method: The efficacy of CMPD139 in vivo on inflammatory pain was measured in inflamed paws after administration of complete Freunds' adjuvans (CFA) (24 h) in the dynamic weight-bearing (DWB) model. The effects of repeated preventive treatment with CMPD139 on pain following repeated oral and subcutaneous administration (3×) in the mouse CFA model of inflammation were investigated using a preventive setting. The GPR84 antagonist CMPD139 (90 or 30 mg/kg, p.o.+s.c., 3× doses) was administered 2 h before injection of CFA and 6-8 h later at day 0. At 24 h after CFA application, the third dose of CMPD139 was given 2 h before DWB testing. Statistical analysis was performed with one-way analysis of variance, followed by Bonferroni's multiple comparison test against vehicle control groups using the GraphPad PRISM software, *p<0.05.

Assay [3] deals with Human eutopic endometrium tissue biopsies. The assay is described as follows: Ex vivo assay 1: GPR84 ligand associated endometrial inflammation assay (cytokines in supernatant, Bio-Plex). In kind it is cell-based. The settings on record: for IL-1beta in supernatant / TNFalpha in supernatant: endometrium slices, 21 hours. On the procedure:
Human eutopic endometrium tissue biopsies as surrogate for endometriosis lesion were cut into small slices, washed with HBSS buffer [ThermoFischer, 14175095] and incubated in DMEM/F12 medium [ThermoFischer, 11320-033], supplemented with 5% FCS for 3 hours. […] After 21 hours cytokines in the supernatant were quantified with the Bio-Plex platform according to the supplier's instructions. Data were analyzed using the GraphPad Software (La Jolla, USA). […] These mediators included IL1β and TNFalpha. […] Thus, activation of GPR84 contributes to the inflammation associated with endometriosis and antagonists are able to reduce inflammation

Assay [4] deals with T1, GPR84. Put plainly: GPR84 cAMP release assay, test for antagonism of agonist-induced activation (cAMP Hunter CHO-K1 GPR84 Gi cells, TR-FRET). In kind it is cell-based. Here is the method:
For the resuscitation of frozen cells (cAMP Hunter™ CHO-K1 GPR84 Gi cells; DiscoverX; #95-0158C2) one vial is taken out of the liquid nitrogen storage and rapidly thawed in a water bath at 37° C. for some 1 to 3 minutes. Immediately afterwards the cells are transferred carefully by decanting into a 50 ml Falcon Tube containing 15 ml of pre-warmed full cell culture medium (HAM's F12; 10% FCS; no selection markers). Gentle swirling is used to assist their resuspension. In a next step, the cells are harvested straight away via low g centrifugation for 5 minutes (Hereaus Multifuge 4 KR; 400 rpm; rcf=44 g) to avoid over-compacting the cell pellet. Gentle decanting is used to get rid of the medium. Finally assay readiness is achieved by carefully re-suspending the cell pellet in 5 ml of the final assay medium (HAM's F12; 10% FCS; no selection markers). In a last step, cell viability and the actual cell number is determined (Omni Life Science; Casy Cell Counter/Analyzer) prior to correcting the volume for the final cell number to be seeded, i.e. 2500 cells/μl. Cell seeding is achieved either with the help of multi-channel pipettes or appropriate bulk reagent dispensers.
In a first step, 1 μl of a 4× antagonist solution in the predefined test range (prepared in assay medium; HAM's F12; 10% FCS; 2 mM Glutamin; no selection markers) is added into the wells of a non-sterile 384-well plate (Greiner; white; #784075; Immediately afterwards 2 μl's of assay ready frozen cells are directly seeded into the plate (5000 cells/well)). […] Time resolved FRET (TR-FRET) signals are determined 60 minutes later using an appropriate HTRF reader (BMG Labtech: Pherastar).
Dose response experiments for GPR84 agonists were carried out using the cAMP Hunter™ CHO-K1 GPR84 Gi cell system (DiscoverX) (PathHunter® CHO-K1 hGPR84 β-Arrestin Cell Line cultured with DMF12 HAM, 9% FBS; 300 ug/ml Hygromycin; 800 ug/ml Geneticin; 2 mM Glut; 1% Pen/Strep) in a 384-well plate format. […] Following a 60-minute incubation cAMP levels were determined by TR-FRET as described above. […]

[5] abbreviates: 6-n-octylaminouracil (10 μM) alone.
Where [6] appears, read: 6-n-octylaminouracil (10 μM) + CMPD 139 (10 μM).
Setting [7] is: Decanoic Acid (10 μM) + CMPD. 139 (10 μM).

A word on the EC50: it is the concentration that produces a half-maximal response. A word on the IC50: it is the point on the concentration scale where inhibition reaches its midpoint. Lower therefore signals inhibition by little substance.

T1 sequence (Q9NQS5 whole entry): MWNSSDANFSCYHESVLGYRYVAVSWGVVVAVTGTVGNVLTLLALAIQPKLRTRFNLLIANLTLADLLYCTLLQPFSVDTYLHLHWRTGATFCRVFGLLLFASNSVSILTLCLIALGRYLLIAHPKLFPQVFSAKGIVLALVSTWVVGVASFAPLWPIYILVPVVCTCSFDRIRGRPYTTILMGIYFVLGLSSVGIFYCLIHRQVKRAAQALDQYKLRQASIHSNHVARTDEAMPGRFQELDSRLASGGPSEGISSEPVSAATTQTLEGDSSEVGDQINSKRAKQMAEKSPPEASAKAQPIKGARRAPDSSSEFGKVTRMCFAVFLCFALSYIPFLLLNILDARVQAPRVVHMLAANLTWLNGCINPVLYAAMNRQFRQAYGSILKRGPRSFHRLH

Consider `CCCCCCCCC(O)C(=O)O` (stereo not shown) [2-OH-decanoic acid, 2-Hydroxydecanoic acid], for which the EC50 on GPR84 [1] worked out at 24000 nM. That is a double-digit micromolar value.
On to `CCCCCCCCNc1cc(=O)[nH]c(=O)[nH]1` [6-n-octylaminouracil, reference compound], for which, in the assay with PBMCs (setting [5]), the IL-1beta concentration was found to be 3427.673 pg/mL and the TNF alpha concentration stood at 955.6923 pg/mL.
On to `Cc1ccc(-c2ccc3c(c2)CCn2c-3cc(OCC3COc4ncccc4O3)nc2=O)cn1` (stereo not shown) [CMPD 139], for which the IL-1beta concentration in the assay on PBMCs (setting [6]) was determined as 1933.011 pg/mL. In the assay on PBMCs (setting [6]), the TNF alpha concentration was 479.6307 pg/mL. Also, the “Effect on GPR84 elevated IL-1beta and TNFalpha levels” value in the assay on PBMCs (LPS-stimulated PBMCs, with 6-n-octylaminouracil) is “reduced GPR84 elevated IL-1beta and TNFalpha levels”. Moreover, the “Weight distribution (% Ipsi/contra) 2 h post last dose mean +/− SD” value in assay [2] (3x 30 + 30 mg/kg p.o./s.c.) is 55.82 +/− 17.38 % Ipsi/contra; in assay [2] (3x 90 + 90 mg/kg p.o./s.c., *p<0.05 vs vehicle), 60.37 +/− 15.45* % Ipsi/contra. For the same molecule, the “Effect on cytokine and growth factor levels compared to agonist alone” value in assay [3] (CMPD 139 at 10^−5 M combined with decanoic acid) is “reduced all measured cytokine and growth factors”. In assay [3] (setting [7]), the IL-1beta in supernatant is listed as 0.9600 pg/mL. Besides, the TNFalpha in supernatant in assay [3] (setting [7]) turned out to be 1.270 pg/mL. Besides, the IC50 is 20 nM on GPR84 [4] (with 6-n-octylaminouracil 1.34 × 10^−7 M), 16 nM on GPR84 [4] (with 40 × 10^−6 M 2-OH decanoic acid) and 9.4 nM at GPR84 [4] (with embelin 6.00 10^−6 M).
In assay [3] (Decanoic Acid (10 μM) alone), `CCCCCCCCCC(=O)O` [Decanoic acid, reference compound] had an IL-1beta in supernatant of 1.413 pg/mL and a TNFalpha in supernatant of 1.953 pg/mL.

(Values after US20210401823A1, “INHIBITORS AND ANTAGONISTS OF GPR84 FOR THE TREATMENT OF ENDOMETRIOSIS” (Bayer Pharma Aktiengesellschaft, priority 2017, published 2021).)
